The values below come from patent US20200231638A1, “STABILIZED ANTI-MICROBIAL PEPTIDES” (priority 2015, published 2020).

One data set has as its system P. aeruginosa. Type of data set: cell-based, Pseudomonas aeruginosa. In short, it runs like this: (§1)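 Broth microdilution in anion-exchange-refined Mueller-Hinton broth; serially diluted peptide mixed with bacteria at 5×10^5 CFU/ml final inoculum. Incubated 20-24 hours at 37° C. MIC taken as lowest peptide concentration with no visible growth.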
The subject of a further data set is S. aureus. It counts as cell-based, Staphylococcus aureus. In short, it runs like this: as §1
In the next data set the test system is human red blood cells. It counts as cell-based. Particulars: red cells of human, 1 h, 25. In short, it runs like this:
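Washed human RBCs as 1% (v/v) suspension in phosphate-buffered saline incubated 1 h at 37° C with serially diluted peptides. Hemoglobin release in supernatant measured spectrophotometrically (570 nm), % hemolysis relative to untreated and 1% Triton-X100 controls; MHC defined as concentration giving less than 1% release.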

For another data set, the system named is B. cereus. It counts as cell-based, Bacillus cereus. In short, it runs like this: as §1
Another data set relates to E. coli. It counts as cell-based, Escherichia coli. In short, it runs like this: as §1

Bridge positions count the residues as written; N and C are the ends. Square brackets hold non-standard residues; d marks the D form. Peptide text beside a SMILES is read from it. R8 = C=CCCCCCC[C@@](C)(N)C(=O)O; S5 = C=CCCC[C@](C)(N)C(=O)O; Nle = CCCC[C@H](N)C(=O)O

As to `CCCC[C@H](NC(=O)[C@@H](NC(=O)[C@H](CCC(=O)O)NC(=O)CNC(=O)[C@@H](NC(=O)[C@H](Cc1ccccc1)NC(=O)[C@H](C)NC(=O)[C@H](CCCCN)NC(=O)[C@]1(C)CCCC=CCCCCCC[C@@](C)(NC(=O)[C@H](Cc2ccccc2)NC(=O)[C@H](CCCCN)NC(=O)CNC(=O)[C@@H](NC(=O)CN)[C@@H](C)CC)C(=O)N[C@@H](Cc2c[nH]cn2)C(=O)N[C@@H](CO)C(=O)N[C@@H](C)C(=O)N[C@@H](CCCCN)C(=O)N[C@@H](CCCCN)C(=O)N[C@@H](Cc2ccccc2)C(=O)N1)C(C)C)[C@@H](C)CC)C(=O)N[C@@H](CC(N)=O)C(=O)N[C@@H](CO)C(N)=O` [Mag(i + 7)5] (H-GIGKF[R8]HSAKKF[S5]KAFVGEI[Nle]NS-NH2; staple 6-13 (inferred); N-terminus and C-terminus assumed), the “MIC P. aeruginosa” value with P. aeruginosa is 3.1 µg/mL. In the data set on S. aureus, the “MIC S. aureus” value worked out at 6.2 µg/mL. Moreover, the “% Hemolysis at 25 μg/ml” value with human red blood cells turned out to be 87.0%. For the same compound, in the data set with B. cereus, the “MIC B. cereus” value came to 3.1 µg/mL. Also, the “MIC E. coli” value against E. coli is 3.1 µg/mL.
Take `CCCC[C@H](NC(=O)[C@@H](NC(=O)[C@H](CCC(=O)O)NC(=O)CNC(=O)[C@@H](NC(=O)[C@H](Cc1ccccc1)NC(=O)[C@H](C)NC(=O)[C@]1(C)CCCC=CCCCCCC[C@@](C)(NC(=O)[C@H](CC(C)C)NC(=O)[C@H](Cc2ccccc2)NC(=O)[C@H](CCCCN)NC(=O)CNC(=O)[C@@H](NC(=O)CN)[C@@H](C)CC)C(=O)N[C@@H](CO)C(=O)N[C@@H](C)C(=O)N[C@@H](CCCCN)C(=O)N[C@@H](CCCCN)C(=O)N[C@@H](Cc2ccccc2)C(=O)NCC(=O)N1)C(C)C)[C@@H](C)CC)C(=O)N[C@@H](CC(N)=O)C(=O)N[C@@H](CO)C(N)=O` [Mag(i + 7)6] (H-GIGKFL[R8]SAKKFG[S5]AFVGEI[Nle]NS-NH2; staple 7-14 (inferred); N-terminus and C-terminus assumed): the “MIC P. aeruginosa” value against P. aeruginosa worked out at 25 µg/mL. Further, the “MIC S. aureus” value against S. aureus was 6.2 µg/mL. Also, the “% Hemolysis at 25 μg/ml” value with human red blood cells is 47.1%. Besides, the “MIC B. cereus” value in the data set with B. cereus turned out to be 6.2 µg/mL. Further, the “MIC E. coli” value in the data set on E. coli was found to be 3.1 µg/mL.
Take `CCCC[C@H](NC(=O)[C@@H](NC(=O)[C@H](CCC(=O)O)NC(=O)CNC(=O)[C@@H](NC(=O)[C@H](Cc1ccccc1)NC(=O)[C@]1(C)CCCC=CCCCCCC[C@@](C)(NC(=O)[C@H](Cc2c[nH]cn2)NC(=O)[C@H](CC(C)C)NC(=O)[C@H](Cc2ccccc2)NC(=O)[C@H](CCCCN)NC(=O)CNC(=O)[C@@H](NC(=O)CN)[C@@H](C)CC)C(=O)N[C@@H](C)C(=O)N[C@@H](CCCCN)C(=O)N[C@@H](CCCCN)C(=O)N[C@@H](Cc2ccccc2)C(=O)NCC(=O)N[C@@H](CCCCN)C(=O)N1)C(C)C)[C@@H](C)CC)C(=O)N[C@@H](CC(N)=O)C(=O)N[C@@H](CO)C(N)=O` [Mag(i + 7)7] (H-GIGKFLH[R8]AKKFGK[S5]FVGEI[Nle]NS-NH2; staple 8-15 (inferred); N-terminus and C-terminus assumed): the “MIC P. aeruginosa” value in the data set on P. aeruginosa was 6.2 µg/mL. Also, the “MIC S. aureus” value against S. aureus worked out at 3.1 µg/mL. Also, the “% Hemolysis at 25 μg/ml” value in the data set on human red blood cells was determined as 95.5%. Further, the “MIC B. cereus” value against B. cereus was 3.1 µg/mL. In the data set with E. coli, the “MIC E. coli” value amounted to 3.1 µg/mL.
Take `CCCC[C@H](NC(=O)[C@@H](NC(=O)[C@H](CCC(=O)O)NC(=O)CNC(=O)[C@@H](NC(=O)[C@]1(C)CCCC=CCCCCCC[C@@](C)(NC(=O)[C@H](CO)NC(=O)[C@H](Cc2c[nH]cn2)NC(=O)[C@H](CC(C)C)NC(=O)[C@H](Cc2ccccc2)NC(=O)[C@H](CCCCN)NC(=O)CNC(=O)[C@@H](NC(=O)CN)[C@@H](C)CC)C(=O)N[C@@H](CCCCN)C(=O)N[C@@H](CCCCN)C(=O)N[C@@H](Cc2ccccc2)C(=O)NCC(=O)N[C@@H](CCCCN)C(=O)N[C@@H](C)C(=O)N1)C(C)C)[C@@H](C)CC)C(=O)N[C@@H](CC(N)=O)C(=O)N[C@@H](CO)C(N)=O` [Mag(i + 7)8] (H-GIGKFLHS[R8]KKFGKA[S5]VGEI[Nle]NS-NH2; staple 9-16 (inferred); N-terminus and C-terminus assumed): in the data set on P. aeruginosa, the “MIC P. aeruginosa” value worked out at 3.1 µg/mL. In addition, in the data set with S. aureus, the “MIC S. aureus” value was 6.2 µg/mL. Moreover, the “% Hemolysis at 25 μg/ml” value with human red blood cells was found to be 85.4%. In the data set on B. cereus, the “MIC B. cereus” value turned out to be 3.1 µg/mL. Further, the “MIC E. coli” value against E. coli is 1.6 µg/mL.
As for `CCCC[C@H](NC(=O)[C@@H](NC(=O)[C@H](CCC(=O)O)NC(=O)CNC(=O)[C@]1(C)CCCC=CCCCCCC[C@@](C)(NC(=O)[C@H](C)NC(=O)[C@H](CO)NC(=O)[C@H](Cc2c[nH]cn2)NC(=O)[C@H](CC(C)C)NC(=O)[C@H](Cc2ccccc2)NC(=O)[C@H](CCCCN)NC(=O)CNC(=O)[C@@H](NC(=O)CN)[C@@H](C)CC)C(=O)N[C@@H](CCCCN)C(=O)N[C@@H](Cc2ccccc2)C(=O)NCC(=O)N[C@@H](CCCCN)C(=O)N[C@@H](C)C(=O)N[C@@H](Cc2ccccc2)C(=O)N1)[C@@H](C)CC)C(=O)N[C@@H](CC(N)=O)C(=O)N[C@@H](CO)C(N)=O` [Mag(i + 7)9] (H-GIGKFLHSA[R8]KFGKAF[S5]GEI[Nle]NS-NH2; staple 10-17 (inferred); N-terminus and C-terminus assumed), the “MIC P. aeruginosa” value in the data set on P. aeruginosa worked out at 3.1 µg/mL. Moreover, the “MIC S. aureus” value with S. aureus was determined as 3.1 µg/mL. In addition, in the data set on human red blood cells, the “% Hemolysis at 25 μg/ml” value is listed as 94.6%. Also, in the data set on B. cereus, the “MIC B. cereus” value was determined as 3.1 µg/mL. The “MIC E. coli” value in the data set with E. coli is 3.1 µg/mL.
With `CCCC[C@H](NC(=O)[C@@H](NC(=O)[C@H](CCC(=O)O)NC(=O)[C@]1(C)CCCC=CCCCCCC[C@@](C)(NC(=O)[C@H](CCCCN)NC(=O)[C@H](C)NC(=O)[C@H](CO)NC(=O)[C@H](Cc2c[nH]cn2)NC(=O)[C@H](CC(C)C)NC(=O)[C@H](Cc2ccccc2)NC(=O)[C@H](CCCCN)NC(=O)CNC(=O)[C@@H](NC(=O)CN)[C@@H](C)CC)C(=O)N[C@@H](Cc2ccccc2)C(=O)NCC(=O)N[C@@H](CCCCN)C(=O)N[C@@H](C)C(=O)N[C@@H](Cc2ccccc2)C(=O)N[C@@H](C(C)C)C(=O)N1)[C@@H](C)CC)C(=O)N[C@@H](CC(N)=O)C(=O)N[C@@H](CO)C(N)=O` [Mag(i + 7)10] (H-GIGKFLHSAK[R8]FGKAFV[S5]EI[Nle]NS-NH2; staple 11-18), the “MIC P. aeruginosa” value against P. aeruginosa came out at 6.2 µg/mL. In addition, in the data set on S. aureus, the “MIC S. aureus” value amounted to 3.1 µg/mL. Further, the “% Hemolysis at 25 μg/ml” value in the data set on human red blood cells is 53.1%. The “MIC B. cereus” value against B. cereus is 6.2 µg/mL. Besides, the “MIC E. coli” value with E. coli is 3.1 µg/mL.
As to `CCCC[C@H](NC(=O)[C@@H](NC(=O)[C@]1(C)CCCC=CCCCCCC[C@@](C)(NC(=O)[C@H](CCCCN)NC(=O)[C@H](CCCCN)NC(=O)[C@H](C)NC(=O)[C@H](CO)NC(=O)[C@H](Cc2c[nH]cn2)NC(=O)[C@H](CC(C)C)NC(=O)[C@H](Cc2ccccc2)NC(=O)[C@H](CCCCN)NC(=O)CNC(=O)[C@@H](NC(=O)CN)[C@@H](C)CC)C(=O)NCC(=O)N[C@@H](CCCCN)C(=O)N[C@@H](C)C(=O)N[C@@H](Cc2ccccc2)C(=O)N[C@@H](C(C)C)C(=O)NCC(=O)N1)[C@@H](C)CC)C(=O)N[C@@H](CC(N)=O)C(=O)N[C@@H](CO)C(N)=O` [Mag(i + 7)11] (H-GIGKFLHSAKK[R8]GKAFVG[S5]I[Nle]NS-NH2; staple 12-19 (inferred); N-terminus and C-terminus assumed), in the data set with P. aeruginosa, the “MIC P. aeruginosa” value turned out to be 1.6 µg/mL. Further, the “MIC S. aureus” value against S. aureus turned out to be 3.1 µg/mL. Also, in the data set on human red blood cells, the “% Hemolysis at 25 μg/ml” value is on record as 84.8%. Moreover, in the data set on B. cereus, the “MIC B. cereus” value was 3.1 µg/mL. The “MIC E. coli” value against E. coli stood at 1.6 µg/mL.
For `CCCC[C@H](NC(=O)[C@]1(C)CCCC=CCCCCCC[C@@](C)(NC(=O)[C@H](Cc2ccccc2)NC(=O)[C@H](CCCCN)NC(=O)[C@H](CCCCN)NC(=O)[C@H](C)NC(=O)[C@H](CO)NC(=O)[C@H](Cc2c[nH]cn2)NC(=O)[C@H](CC(C)C)NC(=O)[C@H](Cc2ccccc2)NC(=O)[C@H](CCCCN)NC(=O)CNC(=O)[C@@H](NC(=O)CN)[C@@H](C)CC)C(=O)N[C@@H](CCCCN)C(=O)N[C@@H](C)C(=O)N[C@@H](Cc2ccccc2)C(=O)N[C@@H](C(C)C)C(=O)NCC(=O)N[C@@H](CCC(=O)O)C(=O)N1)C(=O)N[C@@H](CC(N)=O)C(=O)N[C@@H](CO)C(N)=O` [Mag(i + 7)12] (H-GIGKFLHSAKKF[R8]KAFVGE[S5][Nle]NS-NH2; staple 13-20 (inferred); N-terminus and C-terminus assumed), the “MIC P. aeruginosa” value with P. aeruginosa was 3.1 µg/mL. Moreover, the “MIC S. aureus” value in the data set on S. aureus worked out at 12.5 µg/mL. Further, the “% Hemolysis at 25 μg/ml” value with human red blood cells was determined as 80.3%. Besides, the “MIC B. cereus” value against B. cereus was 3.1 µg/mL. The “MIC E. coli” value in the data set with E. coli was determined as 1.6 µg/mL.
On to `CC[C@H](C)[C@H](NC(=O)CN)C(=O)NCC(=O)N[C@@H](CCCCN)C(=O)N[C@@H](Cc1ccccc1)C(=O)N[C@@H](CC(C)C)C(=O)N[C@@H](Cc1c[nH]cn1)C(=O)N[C@@H](CO)C(=O)N[C@@H](C)C(=O)N[C@@H](CCCCN)C(=O)N[C@@H](CCCCN)C(=O)N[C@@H](Cc1ccccc1)C(=O)NCC(=O)N[C@]1(C)CCCCCCC=CCCC[C@@](C)(C(=O)N[C@@H](CC(N)=O)C(=O)N[C@@H](CO)C(N)=O)NC(=O)[C@H]([C@@H](C)CC)NC(=O)[C@H](CCC(=O)O)NC(=O)CNC(=O)[C@H](C(C)C)NC(=O)[C@H](Cc2ccccc2)NC(=O)[C@H](C)NC1=O` [Mag(i + 7)13] (H-GIGKFLHSAKKFG[R8]AFVGEI[S5]NS-NH2; staple 14-21 (inferred); N-terminus and C-terminus assumed), for which the “MIC P. aeruginosa” value with P. aeruginosa turned out to be 6.2 µg/mL. Also, the “MIC S. aureus” value in the data set with S. aureus was determined as 12.5 µg/mL. Moreover, the “% Hemolysis at 25 μg/ml” value in the data set on human red blood cells was 63.6%. Also, the “MIC B. cereus” value in the data set with B. cereus was 3.1 µg/mL. Also, the “MIC E. coli” value against E. coli worked out at 1.6 µg/mL.
